Source: patent publication US20020151876A1, “Devices and methods for management of bone density” (priority 2001, published 2002)

Legend:
osteoblast-like cells = conditions: cited from earlier work
patients = conditions: long-term use; cited from earlier work
tumor burden in bone = conditions: two separate studies, relatively small number of patients; cited from earlier work
[1] = tested on: patients with Crohn's disease; conditions: cited from earlier work
rabbit model = test: local response to subcutaneous injection, skin reaction scoring (erythema, eschar, edema, necrosis); type: in vivo
Protocol: A test was performed to evaluate the local response to pamidronate sodium following subcutaneous injection into a rabbit model.
The pamidronate sodium was reconstituted with 10 mL of phosphate buffered saline (PBS) to achieve a concentration of 9 mg/mL. The 9 mg/mL. solution was then diluted to achieve a concentration of 0.9 mg/mL.
On the day of the test, the fur on the back of each animal was removed on both sides of the spinal column with electric clippers. A 0.1 mL portion of two concentrations of the sample solution was injected subcutaneously at each of three sites along the spinal column of each of two rabbits. A 0.1 mL portion of PBS was injected subcutaneously at three sites along the other side of the spinal column of the same two rabbits. […] Scoring was at 24 hours, 48 hours, and 72 hours. All of the animals were observed daily for signs of ill health.
The injection sites were examined and scored for any tissue reactions, with results scored according to Table 1.
The average erythema and edema scores for each test article and controls are determined at each scoring interval (24, 48, and 72 hours) for each rabbit.

O=C1NC(=O)C(c2ccccc2)(c2ccccc2)N1 [phenytoin]
proliferation of osteoblast-like cells (osteoblast-like cells): directly suppress proliferation | bone mass in patients (patients): decrease bone mass

O=P(O)(O)C(Cl)(Cl)P(=O)(O)O [clodronate]
tumor burden in bone (tumor burden in bone): decreases tumor burden in bone

NC(=O)N1c2ccccc2C=Cc2ccccc21 [carbamazepine]
proliferation of osteoblast-like cells (osteoblast-like cells): directly suppress proliferation | bone mass in patients (patients): decrease bone mass

NCCCC(O)(P(=O)(O)O)P(=O)(O)O [alendronate]
safety and tolerability [1]: safe and well tolerated

NCCC(O)(P(=O)(O)O)P(=O)(O)O [pamidronate sodium]
injection site reaction (in words) (rabbit model; any of the 0.9 mg/mL sites): no evidence of erythema or edema | injection site reaction (in words) (rabbit model; one 9 mg/mL site on one rabbit, 48 and 72 hours): Slight erythema | injection site reaction (in words) (rabbit model; one of the 9 mg/mL sites, 24 hours, both animals): Slight erythema | signs of ill health, daily observation (rabbit model; rabbits, throughout the test period (72 hours)): remained healthy
